This note sets out measurements from patent US20250179299A1, “DYES FOR MONITORING CELL STATES” (SUNNYBROOK RESEARCH INSTITUTE, priority 2022, published 2025).

Where a name gives a salt, the structure may show the parent alone.

One series has as its system MCF-7 tumoral cells. The experiment in a line: Staining of live MCF-7 cells with 1 μM dye (microscopy). The series is classed as cell-based, human. Here is the method: FIGS. 14A-J depict microscopy images showing staining of MCF7 cells with 1 μM of the following dyes: MT3 (FIG. 14A), MT20 (FIG. 14B), MT21 (FIG. 14C), MT22 (FIG. 14D), MT23 (FIG. 14E), MT24 (FIG. 14F), MT25 (FIG. 14G), MT26 (FIG. 14H), MT27 (FIG. 14I), and MT28 (FIG. 14J). Scale bar, 25 μm.
Used at a standard 1 μM concentration, the proposed dyes produce varying staining patterns and intensities. Furthermore, the proposed dyes display fluorescent properties only when labelling cell organelles and can therefore be used directly without washing steps.

Series [1] deals with primary cells (lymphocytes) and cell lines (tumoral). Put plainly: Fluorescence change of dye-stained cells after treatment with agents that induce cell death. Conditions: for fluorescence intensity relative to MT4 and MT5 / signal-to-noise ratio relative to MT4 and MT5: low micromolar staining concentrations (e.g., 1 μM); for change in fluorescence intensity of the dye after treatment with cell-death inducing agents: staurosporine, or AZD 5991 plus A1331852, in cells sensitive to these drugs but not in chemoresistant cells. The series is classed as cell-based. Here is the method: FIG. 1 depicts microscopy images showing fluorescence change of MT2 and reference dyes following drug treatment of primary lymphocytes. Primary lymphocytes were cultured for 24 hrs with 1 μM Staurosporine (STS, pan-kinase inhibitor) or DMSO (solvent control). Cells were stained with Hoechst (left images), tetramethylrhodamine ethyl ester (TMRE) (middle images) and MT2 (right images). Scale bar, 20 μm.
(§1) MCF10A cells were cultured for 24 hrs prior to 72 hr dual treatment with 0.312 μM each of AZD 5991 (Bcl-XL inhibitor) and A1331852 (MCL-1 inhibitor) or DMSO (solvent control). FIG. 2A: cells were stained with Hoechst (left images), TMRE (middle images) and MT3 (right images). Scale bar, 100 μm. FIGS. 2B-E: comparison of the staining pattern of Hoechst, MT3, and TMRE in control and treated MCF10A epithelial breast cells.
FIG. 3 depicts microscopy images showing fluorescence change of 1 μM MT3 and reference dyes following drug treatment of CAMA-1 luminal-type human breast cancer cells. CAMA-1 cells were cultured for 24 hrs prior to 72 hr dual treatment with 0.312 μM each of AZD 5991 (Bcl-XL inhibitor) and A1331852 (MCL-1 inhibitor) or DMSO (solvent control). Cells were stained with Hoechst (left images), TMRE (middle images) and MT3 (right images). Scale bar, 100 μm.
FIG. 4 depicts microscopy images showing fluorescence change of MT3 and reference dyes following drug treatment of MCF-7 human epithelial breast adenocarcinoma cells. MCF-7 cells were cultured for 24 hrs prior to 72 hr dual treatment with 0.312 μM each of AZD 5991 (Bcl-XL inhibitor) and A1331852 (MCL-1 inhibitor) or DMSO (solvent control). Cells were stained with Hoechst (left images), TMRE (middle images) and MT3. Scale bar, 100 μm.
(§2) FIG. 5 depicts microscopy images showing fluorescence change of MT3 and reference dyes following drug treatment of Zr-75-1 epithelial breast ductal carcinoma cells. Zr-75-1 cells were cultured for 24 hrs prior to 72 hr dual treatment with 0.312 μM each of AZD 5991 (Bcl-XL inhibitor) and A1331852 (MCL-1 inhibitor) or DMSO (solvent control). Cells were stained with Hoechst (left images), TMRE (middle images) and MT3 (right images). Scale bar, 100 μm.
FIG. 6 depicts microscopy images showing fluorescence change of MT3 and reference dyes following drug treatment of MDA-MB-231 epithelial breast adenocarcinoma cells. MDA-MB-231 cells were cultured for 24 hrs prior to 72 hr dual treatment with 0.312 μM each of AZD 5991 (Bcl-XL inhibitor) and A1331852 (MCL-1 inhibitor) or DMSO (solvent control). Cells were stained with Hoechst (left images), TMRE (middle images) and MT3 (right images). Scale bar, 100 μm.
FIG. 7 depicts microscopy images showing fluorescence change of MT3 and reference dyes following drug treatment of MDA-MB-468 epithelial breast adenocarcinoma cells. MDA-MB-468 cells were cultured for 24 hrs prior to 72 hr dual treatment with 0.312 μM each of AZD 5991 (Bcl-XL inhibitor) and A1331852 (MCL-1 inhibitor) or DMSO (solvent control). Cells were stained with Hoechst (left images), TMRE (middle images) and MT3. Scale bar, 100 μm.
FIG. 8 depicts microscopy images showing fluorescence change of MT3 and reference dyes following drug treatment of T47D epithelial breast ductal carcinoma cells. T47D cells were cultured for 24 hrs prior to 72 hr dual treatment with 0.312 μM each of AZD 5991 (Bcl-XL inhibitor) and A1331852 (MCL-1 inhibitor) or DMSO (solvent control). Cells were stained with Hoechst (left images), TMRE (middle images) and MT3 (right images). Scale bar, 100 μm.
(§3) These changes in fluorescence emission properties were shared by all dyes tested (MT2-MT5).

Series [2] has as its system Zr-75-1 epithelial breast ductal carcinoma cells. The experiment in a line: MT3 staining of drug-treated chemoresistant Zr-75-1 cells. Type of series: cell-based. Conditions: 72 hr 0.312 μM each AZD 5991 and A1331852. On the procedure: as §2, §3
Series [3] deals with MCF10A epithelial breast cells. The experiment in a line: Staining of control and drug-treated MCF10A cells. Type of series: cell-based. On the procedure:
FIGS. 2A-E depict microscopy images showing fluorescence change of 1 μM MT3 and reference dyes following drug treatment of non-tumorigenic MCF10A epithelial breast cells.
as §1, §3
In the figures, Hoechst stains DNA in the nucleus, and if the nucleus condenses that staining becomes bright (i.e., more dye per unit area). […] In FIG. 2E, the TMRE staining has almost completely disappeared in drug treated cells, whereas MT3 is staining the nuclei. […] FIGS. 7 and 8 have similar lack of staining for TMRE, FIG. 7 is similar to FIG. 4 where the staining with Hoechst and MT3 are mutually exclusive, and FIG. 8 is similar to FIG. 3 where MT3 is staining nuclei where the Hoechst has not condensed.

In series [4] the test system is MCF-7 breast epithelial cancer cells. The experiment in a line: MT2 staining of MCF-7 cells treated with inducers of autophagy, ER stress or apoptosis. The series is classed as cell-based, human. The note with it: 1-5 μM MT2; Rapamycin, Thapsigargin, or TNFα and CHx; excitation 488 nm, emission 520, 600, 690 nm. On the procedure:
FIG. 9 depicts microscopy images showing fluorescence change of MT2 and reference dyes following drug treatment of MCF-7 human epithelial breast adenocarcinoma cells. MCF-7 cells were cultured for 12 hrs in standard conditions and treated with drugs to induce autophagy (Rapamycin), endoplasmic reticulum stress (Thapsigargin), apoptosis (Tumor Necrosis Factor alpha, TNFα, and Cyclohexamide, CHx), or solvent control (DMSO). Dye MT2 was excited at 488 nm, and emission was simultaneously collected at three wavelengths, 520 nm (Green), 600 nm (Red), and 690 (Far Red) nm.
The dye was excited at 488 nm, and emission was simultaneously collected at three wavelengths, 520 (Green), 600 (Red), and 690 (Far Red) nm. […] Image analysis by machine-learning algorithms trained on measurements of cellular intensity, morphology, and texture features permits to distinguish treatment-specific phenotypic states.

As to `Cc1cccc(N(c2cccc(C)c2)c2ccc3cc(/C=C/c4cc[n+](CCCCS(=O)(=O)[O-])cc4)ccc3c2)c1` [MT21, (E)-4-(4-(2-(6-(di-m-tolylamino)naphthalen-2-yl)vinyl)pyridin-1-ium-1-yl)butane-1-sulfonate], in the series on MCF-7 tumoral cells, the “ability to stain live cells” value is “able to stain live cells” and the cell permeability entry was “cell-permeable”.
Consider `Cc1cccc(N(c2cccc(C)c2)c2ccc3cc(/C=C/c4cc[n+](CCC[N+](C)(C)C)cc4)ccc3c2)c1` [MT27, 4-[(1E)-2-{6-[Bis(3-methylphenyl)amino]naphthalen-2-yl}ethenyl]-1-[3-(trimethylazaniumyl)propyl]pyridin-1-ium dibromide], for which, in the series on MCF-7 tumoral cells, the “ability to stain live cells” value is “able to stain live cells” and the cell permeability result was “cell-permeable”.
Take `Cc1cccc(N(c2cccc(C)c2)c2ccc3cc(/C=C(\F)c4cc[n+](CCCS(=O)(=O)[O-])cc4)ccc3c2)c1` [MT24, 4-[(1Z)-2-{6-[Bis(3-methylphenyl)amino]naphthalen-2-yl}-1-fluoroethenyl]-1-(3-sulfopropyl)pyridin-1-ium]: the cell permeability result with MCF-7 tumoral cells is “cell-permeable”.
`Cc1cccc(N(c2cccc(C)c2)c2ccc3cc(/C=C/c4cc[n+](CC(O)C[N+](C)(C)CCO)cc4)ccc3c2)c1` (centres unmarked) [MT28, 4-[(1E)-2-{6-[Bis(3-methylphenyl)amino]naphthalen-2-yl}ethenyl]-1-{2-hydroxy-3-[(2 hydroxyethyl)dimethylazaniumyl]propyl}pyridin-1-ium dibromide]: in the series on MCF-7 tumoral cells, the “ability to stain live cells” value is “able to stain live cells” and the cell permeability entry was “cell-permeable”.
As to `Cc1cccc(N(c2cccc(C)c2)c2ccc3cc(/C=C/c4cc[n+](CCCS(=O)(=O)[O-])cc4)ccc3c2)c1` [MT3, 4-(2-[6-(dim-tolylamino)-2-naphthalenyl]ethenyl)-1-(3-sulfopropyl) pyridinium Inner Salt], in the series on MCF-7 tumoral cells, the “ability to stain live cells” value is recorded as “able to stain live cells” and the cell permeability result is “cell-permeable”. Also, in series [1], the “fluorescence intensity relative to MT4 and MT5” value was “better fluorescence intensity”; the “signal-to-noise ratio relative to MT4 and MT5” value is reported as “better signal-to-noise ratios”; the “change in fluorescence intensity of the dye after treatment with cell-death inducing agents” value is reported as “increase in fluorescence intensity”. For the same molecule, in series [2], the “staining of cells with condensed nuclei (Hoechst staining)” value is listed as “did not show bright MT3 staining”. The “staining intensity of drug-treated dying cells” value in series [3] (MCF10A, 1 μM MT3, 72 hr 0.312 μM each AZD 5991 and A1331852, normal cells stained with different intensities) was “very brightly”.
Take `CC(C)=CCN(CC=C(C)C)c1ccc2cc(/C=C/c3cc[n+](CCCS(=O)(=O)[O-])cc3)ccc2c1` [MT22, (E)-3-(4-(2-(6-(bis(3-methylbut-2-en-1-yl)amino)naphthalen-2-yl)vinyl)pyridin-1-ium-1-yl)propane-1-sulfonate]: in the series on MCF-7 tumoral cells, the “ability to stain live cells” value is “able to stain live cells” and the cell permeability entry is on record as “cell-permeable”.
Regarding `CC(C)=CCN(CC=C(C)C)c1ccc2cc(/C=C/c3cc[n+](CCCS(=O)(=O)[O-])cc3)ccc2c1C(F)(F)F` [MT26, 4-[(1E)-2-{6-[Bis(3-methylbut-2-en-1-yl)amino]-5-(trifluoromethyl)naphthalen-2-yl}ethenyl]-1-(3-sulfopropyl)pyridin-1-ium], the cell permeability entry with MCF-7 tumoral cells is recorded as “cell-permeable”.
Take `CC(C)=CCN(CC=C(C)C)c1ccc2cc(/C=C/c3cc[n+](CCCS(=O)(=O)[O-])cc3)ccc2c1F` [MT25, 4-[(1E)-2-{6-[Bis(3-methylbut-2-en-1-yl)amino]-5-fluoronaphthalen-2-yl}ethenyl]-1-(3-sulfopropyl)pyridin-1-ium]: the cell permeability entry with MCF-7 tumoral cells was “cell-permeable”.
As for `Cc1cccc(N(c2cccc(C)c2)c2ccc3cc(/C=C/c4cc[n+](CCCS(=O)(=O)[O-])cc4F)ccc3c2)c1` [MT23, 4-[(1E)-2-{6-[Bis(3-methylphenyl)amino]naphthalen-2-yl}ethenyl]-3-fluoro-1-(3-sulfopropyl)pyridin-1-ium], the cell permeability entry with MCF-7 tumoral cells is given as “cell-permeable”.
On to `Cc1cccc(N(c2cccc(C)c2)c2ccc3cc(/C=C/c4cc[n+](CCCS(=O)(=O)[O-])cc4)c4ccccc4c3c2)c1` [MT20, (E)-3-(4-(2-(3-(di-m-tolylamino)phenanthren-9-yl)vinyl)pyridin-1-ium-1-yl)propane-1-sulfonate], for which, in the series on MCF-7 tumoral cells, the “ability to stain live cells” value is given as “able to stain live cells” and the cell permeability result is “cell-permeable”.
`CC(C)CCN(CCC(C)C)c1ccc2cc(/C=C/c3cc[n+](CCCS(=O)(=O)[O-])c4ccccc34)ccc2c1` [MT2, 4-(2-[6-(diisopentylamino)-2-naphthalenyl]ethenyl)-1-(3-sulfopropyl)quinolinium inner salt]: in series [1], the “fluorescence intensity relative to MT4 and MT5” value was “better fluorescence intensity”; the “signal-to-noise ratio relative to MT4 and MT5” value is “better signal-to-noise ratios”; the “change in fluorescence intensity of the dye after treatment with cell-death inducing agents” value is “increase in fluorescence intensity”. The “staining pattern across phenotypic states (autophagy, ER stress, apoptosis)” value in series [4] was “different staining patterns”.
Turning to “tetramethylrhodamine ethyl ester [TMRE, reference compound]”, the “staining of drug-treated dying cells relative to control cells” value in series [3] (72 hr 0.312 μM each AZD 5991 and A1331852 (FIGS. 2E and 3)) is reported as “low staining”.
